Laboratory results published in ChEMBL document CHEMBL1126410, “Synthesis and activity in cognition-related tests of novel 2-benzoylamino-4-oxoquinazolines” (1992).
Activity calls are given as the source filed them. The calls are words filed in the database; no cut-off is given here.

Assays:
Mus musculus [1] = experiment: The compound was evaluated for hypoxic survival activity in mice after intraperitoneal administration at 100 mg/kg dose; 45-65; format: functional; conditions: ip
Mus musculus [2] = experiment: Evaluated for improvement of anoxic amnesia in mice after ip administration of 50 mg/kg dose; format: functional; conditions: route intraperitoneal
Mus musculus [3] = experiment: The compound was evaluated for hypoxic survival activity in mice after intraperitoneal administration at 100 mg/kg dose; 80-85; format: functional; conditions: ip
Rattus norvegicus [4] = experiment: Evaluated for improvement of anoxic amnesia in aged rat after ip administration of 25 mg/kg (300 delay seconds); format: functional; conditions: route intraperitoneal
Mus musculus [5] = experiment: Evaluated for improvement of anoxic amnesia in mice after ip administration of 100 mg/kg dose; format: functional; conditions: route intraperitoneal
Mus musculus [6] = experiment: Evaluated for improvement of anoxic amnesia in mice after ip administration of 25 mg/kg dose(341 delay seconds); 79-131; format: functional; conditions: route intraperitoneal
Mus musculus [7] = experiment: The compound was evaluated for hypoxic survival activity in mice after intraperitoneal administration at 100 mg/kg dose; 75-80; format: functional; conditions: ip
Rattus norvegicus [8] = experiment: Evaluated for improvement of anoxic amnesia in aged rat after ip administration of 10 mg/kg dose(529 delay seconds); format: functional; conditions: route intraperitoneal
Mus musculus [9] = experiment: Evaluated for improvement of anoxic amnesia in mice after ip administration of 10 mg/kg dose(218 delay seconds); -19-248; format: functional; conditions: route intraperitoneal
Mus musculus [10] = experiment: The compound was evaluated for hypoxic survival activity in mice after intraperitoneal administration at 100 mg/kg dose; 50-90; format: functional; conditions: ip
Mus musculus [11] = experiment: The compound was evaluated for hypoxic survival activity in mice after intraperitoneal administration at 0.125 mg/kg dose; 60-80; format: functional; conditions: ip
Mus musculus [12] = experiment: The compound was evaluated for hypoxic survival activity in mice after intraperitoneal administration at 100 mg/kg dose; 55-55; format: functional; conditions: ip
Mus musculus [13] = experiment: The compound was evaluated for hypoxic survival activity in mice after intraperitoneal administration at 10-100 mg/kg dose; Inactive; format: functional, organism-based
Mus musculus [14] = experiment: The compound was evaluated for hypoxic survival activity in mice after intraperitoneal administration at 10 mg/kg dose; 50-75; format: functional; conditions: ip
Mus musculus [15] = experiment: The compound was evaluated for hypoxic survival activity in mice after intraperitoneal administration at 10 mg/kg dose; 30-80; format: functional; conditions: ip
Mus musculus [16] = experiment: The compound was evaluated for hypoxic survival activity in mice after intraperitoneal administration at 100 mg/kg dose; format: functional; conditions: ip
Mus musculus [17] = experiment: The compound was evaluated for hypoxic survival activity in mice after intraperitoneal administration at 50 mg/kg dose; 80-90; format: functional; conditions: ip
Mus musculus [18] = experiment: The compound was evaluated for hypoxic survival activity in mice after intraperitoneal administration at 100 mg/kg dose; 65-80; format: functional; conditions: ip
Mus musculus [19] = experiment: The compound was evaluated for hypoxic survival activity in mice after intraperitoneal administration at 100 mg/kg dose; 50-95; format: functional; conditions: ip

## Cc1ccc(C(=O)Nc2nc(=O)c3ccccc3n2C)cc1
Mus musculus [1]
  survival at 100 mg/kg: 55%
Mus musculus [2]
  Improvement: 224%

## Cc1cccc(C(=O)Nc2nc(O)c3ccccc3n2)c1
Mus musculus [3]
  survival at 100 mg/kg: 83%

## Cn1c(NC(=O)c2ccccc2)nc2ccccc2c1=O
Rattus norvegicus [4]
  Improvement: 733%
Mus musculus [5]
  Improvement: 78%
Mus musculus [6]
  Improvement: 105%
Mus musculus [7]
  survival at 100 mg/kg: 78%
Rattus norvegicus [8]
  Improvement: 1369%
Mus musculus [9]
  Improvement: 94%

## COc1cc2nc(NC(=O)c3ccccc3)nc(O)c2cc1OC
Mus musculus [10]
  survival at 100 mg/kg: 70%

## CNC(=O)Oc1ccc2c(c1)[C@]1(C)CCN(C)[C@@H]1N2C [PHYSOSTIGMINE]
Mus musculus [11]
  survival at 0.125 mg/kg: 60%

## Cc1ccc2nc(NC(=O)c3ccccc3)nc(O)c2c1
Mus musculus [12]
  survival at 100 mg/kg: 55%

## Cc1cccc(C(=O)Nc2nc(=O)c3ccccc3n2C)c1
Mus musculus [13]
  Survival: inactive

## Cc1ccc(C(=O)Nc2nc(O)c3ccccc3n2)cc1
Mus musculus [14]
  survival at 10 mg/kg: 63%

## O=C(Nc1nc(O)c2ccccc2n1)c1ccc(Cl)cc1
Mus musculus [15]
  survival at 10 mg/kg: 55%

## CC(C)n1c(NC(=O)c2ccccc2)nc2ccccc2c1=O
Mus musculus [16]
  survival at 100 mg/kg: 55%

## Cc1ccc(C(=O)Nc2nc3ccccc3c(=O)n2C)cc1
Mus musculus [17]
  survival at 50 mg/kg: 85%
Mus musculus [2]
  Improvement: 116%

## O=C(Nc1nc(O)c2ccccc2n1)c1ccccc1
Mus musculus [18]
  survival at 100 mg/kg: 73%
Mus musculus [2]
  Improvement: 130%

## COc1ccc(C(=O)Nc2nc(O)c3ccccc3n2)cc1
Mus musculus [14]
  survival at 10 mg/kg: 63%

## Cn1c(NC(=O)c2ccccc2)nc(=O)c2ccccc21
Mus musculus [19]
  survival at 100 mg/kg: 70%
